{"source": "patent US8435950B2", "about": "“Anti-aging peptides and cosmetic and/or pharmaceutical composition containing same” (ISP Investments, priority 2009, dated 2013)", "key": {"Clock protein [1]": {"tested_on": "Clock protein", "experiment": "Ex vivo immunolabeling of Clock protein in skin biopsies", "format": "cell-based", "details": "human skin ex vivo, peptide diluted to 1%, topical, 48 hr", "procedure": "(§1) A study of the activating effect of the peptide SEQ ID no.1 was carried out by evaluating the expression of Clock and Per-1 proteins in skin biopsies ex vivo.\n(§2) Ex vivo studies by immunolabeling have made it possible to evidence the expression of Clock and Per-1 proteins in skin samples. Samples of human skin are cultured at the air/liquid interface. The peptide SEQ ID no.1 diluted to 1% (from a 10^−4M solution) is applied topically to these samples for 48 hr at a rate of two times per 24 hr.\n(§3) Skin samples not treated with the peptide SEQ ID no.1 serve as a control. The skin samples are fixed with 10% formaldehyde and enclosed in paraffin. Sectional cuts of 3 μm are then made with a microtome. The immunolabeling is carried out after removal of the paraffin and unmasking of the antigenic sites.\nThe immunolabeling for the Clock protein is carried out by means of an antibody (ABcam) diluted 1/250 and a secondary antibody diluted 1/50 and coupled to a fluorochrome.\n(§4) The slides are then mounted in a suitable medium and observed under epifluorescence microscope (Nikon Eclipse E600)."}, "Clock protein [2]": {"tested_on": "Clock protein", "experiment": "Ex vivo immunolabeling of Clock protein in skin biopsies aged artificially during culture", "format": "cell-based, human", "procedure": "(§5) A study of the activating effect of the peptide SEQ ID no.1 was carried out by evaluating the expression of Clock and Per-1 proteins in skin models, aged artificially during culture. The analysis was carried out after 62 hr and 134 hr of culturing.\nas §2, with “samples aged during culture.” for “samples.”, “interface for 62 hr and 134 hr.” for “interface.”, “samples” for “samples for 48 hr”, “day during the period of the experiment.” for “24 hr.”\nas §3, with “are” for “are then”, “sites. The immunolabeling for the Clock protein is carried out by means of an antibody (ABcam) diluted 1/250 and a secondary antibody diluted 1/50 and coupled to a fluorochrome.” for “sites.”\nas §4"}, "Per-1 protein [3]": {"tested_on": "Per-1 protein", "experiment": "Ex vivo immunolabeling of Per-1 protein in skin biopsies", "format": "cell-based", "details": "human skin ex vivo, peptide diluted to 1%, topical, 48 hr", "procedure": "as §1, §2, §3\nThe immunolabeling for the Per-1 protein is carried out by a polyclonal antibody (Cosmobio) diluted 1/100 and a secondary antibody diluted 1/50 and coupled to a fluorochrome.\nas §4"}, "Clock protein [4]": {"tested_on": "Clock protein", "experiment": "Immunohistochemistry (immunolabeling) of Clock protein in cultured fibroblasts", "format": "cell-based", "details": "18 hr, peptide diluted 1% (from a 10^-4M solution), versus untreated", "procedure": "(§6) A study of the activating effect of the peptide SEQ ID no.1 was carried out by evaluating the expression of the Clock protein by western blot in cultured fibroblasts and by immunohistochemistry by labeling the Clock protein by means of immunolabeling. The technique of western blotting is a semi-quantitative method which makes it possible to evaluate the level of Clock protein in dermal cells.\nCultured fibroblasts are cultivated in 8-well chambers (labteck) at 37° C. in a humidified atmosphere containing 5% CO2 for 18 hr in the presence or absence of the peptide SEQ ID no.1, diluted 1% (from a 10^−4M solution). Untreated cells are cultivated at the same time and serve as a control. On the day of labeling the cells are rinsed, fixed in a mixture (2% glutaraldehyde—2% formaldehyde) for 3 minutes and then rinsed. The primary antibody (ABcam), diluted 1/250 is applied for 1 hour and a secondary antibody, diluted 1/50 and coupled to a fluorochrome is applied for 1 hour. The cells are then mounted between a slide and cover glass in a suitable mounting medium and observed under epifluorescence microscope."}, "Per-1 protein [5]": {"tested_on": "Per-1 protein", "experiment": "Ex vivo immunolabeling of Per-1 protein in skin biopsies aged artificially during culture", "format": "cell-based, human", "details": "after 62 hr of treatment", "procedure": "as §5\nas §2, with “samples aged during culture.” for “samples.”, “interface for 62 hr and 134 hr.” for “interface.”, “samples” for “samples for 48 hr”, “day during the period of the experiment.” for “24 hr.”\nas §3, with “are” for “are then”, “sites. The immunolabeling for the Clock protein is carried out by means of an antibody (ABcam) diluted 1/250 and a secondary antibody diluted 1/50 and coupled to a fluorochrome.” for “sites.”\nThe immunolabeling for the Per-1 protein is carried out by a polyclonal antibody (Cosmobio) diluted 1/100 and a secondary antibody diluted 1/50 and coupled to a fluorochrome. […]"}, "skin biopsies": {"tested_on": "skin biopsies", "experiment": "Protective effect on morphology of skin biopsies during aging (hematoxyline/eosin histology)", "format": "cell-based, human", "details": "62 and 134 h culture, peptide diluted to 1% topically twice per day; untreated skin damaged", "procedure": "A study of the protective effect of the peptide SEQ ID no.1 was carried out in parallel by evaluating the damage caused by aging at 62 hr and 134 hr by way of immunohistology by means of colouration of sectional cuts of skin.\nSamples of human skin are placed in culture at the air/liquid interface. The peptide SEQ ID no.1 diluted to 1% (from a 10^−4M solution) is applied topically to these samples for 62 hr and 134 hr. The application is renewed twice per day during the period of the experiment. Untreated skin samples serve as a control during the experiment. The skin samples are fixed with 4% formaldehyde and enclosed in paraffin. Sectional cuts of 3 μm are made with a microtome. The tissues are coloured using hematoxyline (which colours the cell nuclei blue-black) and eosin, which is specific to the colouration of cytoplasms. The morphological structure of the biopsies is then assessed under transmission microscope."}, "Clock protein [6]": {"tested_on": "Clock protein", "experiment": "Western blot of Clock protein expression in cultured fibroblasts", "format": "cell-based", "details": "16 hr, peptide diluted to 1% (from a 10^-4M solution), untreated control = 100%, Experiment 1", "procedure": "as §6\nCultured fibroblasts are cultivated in containers with a diameter of 100 mm at 37° C. in a humidified atmosphere containing 5% CO2 for 16 hr in the presence or absence of the peptide SEQ ID no.1, diluted to 1% (from a 10^−4M solution). The cells are rinsed and then removed from the support with the aid of an extraction buffer (20 mM TRIS, 150 mM NaCl, 10 mM EDTA, 0.2% triton […]) in the presence of a cocktail of protease inhibitors (Sigma). The proteins thus extracted are centrifuged at 4° C. at 10000 rpm, before being dosed by the BCA protein dosing kit (Pierce). The cellular lysates are mixed with a denaturing buffer and subjected to SDS-PAGE electrophoresis. The gel used is 4-12% Nupage (Invitrogen). The proteins are then transferred to a nitrocellulose membrane (Pal corporation). […] The quantitative evaluation of the proteins present in the cells was carried out using the chemiimager software (Alpha innotech Corporation USA)."}}, "note": "Where no end group is shown, it is not given here."}
{"substance": "Ser-Pro-Leu-Gln-NH2 (SPLQ-NH2) [SEQ ID no.1]", "values": [{"measurement": "Amount of Clock protein compared with untreated skin", "setting": "Clock protein [1]", "value": "slightly greater"}, {"measurement": "Labeling of the Clock protein compared to untreated control", "setting": "Clock protein [2]; after 62 hr of culturing", "value": "increased"}, {"measurement": "Labeling of the Clock protein compared to untreated control skin", "setting": "Clock protein [2]; after 134 hr", "value": "largely increased"}, {"measurement": "Amount of Per-1 protein compared with untreated skin", "setting": "Per-1 protein [3]", "value": "greater"}, {"measurement": "Expression of the Clock protein by labeling in fibroblasts", "setting": "Clock protein [4]", "value": "increase in the expression of the Clock protein"}, {"measurement": "Expression of the PER-1 protein compared to untreated", "setting": "Per-1 protein [5]", "value": "increased"}, {"measurement": "Morphological structure of skin biopsies / damage caused by aging", "setting": "skin biopsies", "value": "well-preserved morphological structure"}, {"measurement": "Intensity (%) of Clock protein, western blot", "setting": "Clock protein [6]", "value": 179, "unit": "%"}]}
